US5380729A, “12-hetero substituted 6,11-ethano-6,11-dihydrobenzo (b) quinolizinium salts and compositions and method of use thereof” (Sterling Winthrop Inc., priority 1993, dated 1995)

Assays:
[1] = system: NMDA-induced neurotoxicity in cultured cortical neurons; test: Antagonism of NMDA-induced neurotoxicity in cultured neurons (LDH release); format: cell-based, mouse (Swiss-Webster); conditions: 500 μM NMDA, 30 minutes, LDH activity at 24 hours, mouse cortical neurons
Description: Antagonism of NMDA-induced Neurotoxicityin Cultured Neurons
Preparation of Cultured Cortical Neurons
Pregnant, Swiss-Webster mice were obtained from Taconic Farms (Germantown, New York) and sacrificed 16 days post conception. Fetuses were removed and placed in a sterile dish containing Hank's balanced salt solution (HBSS), pH 7.4. Brain cortices were dissected, meninges were removed, the tissue was minced and placed into a solution of HBSS containing 0.25% (w/v) trypsin at 37° C. for 15 minutes. Tissue was then triturated with a sterile pasteur pipet, diluted with minimal essential media (Gibco 330-1430), pH 7.4, supplemented with 10% horse serum, 10% fetal calf serum, 2 mM 1-glutamine, 21 mM d-glucose, 2.2 g/L sodium bicarbonate, 1000 u/ml penicillin, and 1,000 μg/ml streptomycin. Cells were plated onto Falcon primaria 96 well plates at a final density of 50,000 cells/well and incubated at 37° C. in the presence of 5% (v/v) carbon dioxide. After 5 days, plating media was replaced with maintenance media containing minimal essential media (Gibco 330- 1430), pH 7.4, supplemented with 10% horse serum, 10% 1-glutamine, 21 mM d-glucose, 2.2 g/l sodium bicarbonate,1,000 U/ml penicillin, 1,000 μg/ml streptomycin, and 10 μM cytosine arabinoside. On days 7 and 10, media was replaced with maintenance media as above lacking the cytosine arabinoside. Experiments were conducted on day 13.
Neuroprotection Assessment
Day 13 cultured cortical neurons were washed twice with minimal essential media, pH 7.4 and then exposed for 30 minutes to 500 μM N-methyl-D-aspartic acid (NMDA) with or without varying concentrations of test agents. Dizocilpine (MK-801) at a final concentration of 10 μM MK-801 was routinely included as a positive control. MK-801 and test agents were prepared in minimal essential media supplemented with 21 mM d-glucose and 2.2 g/L sodium bicarbonate (MEM). After 30 minutes, media was replaced with MEM alone. Exposure of neurons to test agents was limited to the NMDA treatment period. Twenty-four hours after removal of NMDA, an aliquot of media from each well was removed for assessment of cell injury by determining lactate dehydrogenase (LDH) activity by. the method of Wroblewski and LaDue Proc. Soc. Exp. Biol. Med. 1955, 90, 210-213. The results are expressed as an IC50 (in nM) value (concentration causing 50% inhibition) for the antagonism of NMDA--inducedneurotoxicity.

[2] = target: PCP recognition sites; test: [3H]TCP Radioreceptor Assay (internal screen); format: binding, rat (male Sprague-Dawley; conditions: rat whole brain membranes, room temperature, 25 min; for Ki: ~1 nM [3H]TCP; for Percent inhibition, [3H]TCP (internal screen): @ 10 μM
Description: [^3 H]TCP Radioreceptor Assay (internal screen)
[^3 H]TCP binding to PCP recognition sites was performed as described by Vignon et al. Brain Research 1983, 280, 194°197. Male Sprague-Dawley rats were sacrificed by decapitation, and whole brains were homogenized in 10 volumes (wt/vol) of cold Tris-HCl buffer (50 mM, pH 7.7) using a Brinkmann Polytron (setting 6, 30 sec). The homogenate was centrifuged at 40,000×g for 10 min at 4° C. The supernatant was decanted, and the homogenization and centrifugation steps were repeated twice as described above. Following this, the pellet was resuspended in Tris-HCl (5 mM, pH 7.7) at a tissue concentration of 0.5°0.75 g/ml, and one ml aliquots were frozen at -70° C. until use. The binding characteristics for PCP recognition sites were not altered by the freezing of membrane suspensions.
On the day of the assay, membrane aliquots were thawed, resuspended in fresh 5 mM Tris-HCl buffer at a tissue concentration of 1 mg/ml, and stored on ice until use. Each assay tube contained 100 μl of [^3 H]TCP at a final concentration of approximately 1 nM, 100 μl of various concentrations of the compounds of interest, 500 μl of the tissue suspension and 300 of buffer to a final assay volume of 1 ml and a final protein concentration of 0.5 mg/tube. Non-specific binding was defined by addition of a final concentration of 100 μM PCP to blank tubes. All tubes were incubated at room temperature for 25 min before termination of the reaction by rapid filtration over Whatman GF/B glass fiber filters that had been presoaked in a solution of 0.5% polyethylenimine for at least 1 hr prior to use. Filters were washed with three 4 ml volumes of cold Tris buffer. Following addition of scintillation cocktail, the amount of bound radioactivity was determined by liquid scintillation spectrometry using a Beckman LS 5000TA liquid scintillation counter with an efficiency for tritium of approximately 55% . Inhibition constants (Ki values) were calculated using the EBDA/LIGAND program (McPherson, J. Pharmacol. Meth. 1985, 14, 213-228), purchased from Elsevier/Biosoft, Inc. Results are reported as Ki values or as a percent (%) inhibition of binding at 10

| Compound | Ki [2] [nM] | other results |
| --- | --- | --- |
| CCOC1(OCC)C2c3cc(OC)ccc3C([n+]3ccccc32)C1(C)C (single isomer, unassigned) [20(a), 9-methoxy-12,12-diethoxy-13,13-dimethyl-6,11-ethano-6,11-dihydrobenzo[b]quinolizinium hexafluorophosphate] | 3.52 | IC50 [1]: 157 nM |
| CCOC1(OCC)C2c3ccccc3C([n+]3ccccc32)C1(C)C (single isomer, unassigned) [Example 13(c), 12,12-diethoxy-13,13-dimethyl-6,11-ethano-6,11-dihydrobenzo[b]quinolizinium chloride-1/2-3/4 hydrate] |  | IC50 ([1]; Cortical neurone): 50 nM; Ki ([2]; hydrate): 11 nM |
| CCOC1(OCC)C2c3ccccc3C(C1C)[n+]1ccccc12 (single isomer, unassigned) [Example 37, 6,11-ethano-12,12-diethoxy-13-methyl-6,11-dihydrobenzo[b]quinolizinium] |  | IC50 ([1]; Cortical neurone): 810 nM |
| C[C@@H]1C[C@@H](C)OC2(O1)C1c3ccccc3C([n+]3ccccc31)C2(C)C (stereo partly drawn) [Example 11, 12,12-(2R,4R-pentanediolketal)-13,13-dimethyl-6,11-ethano-6,11-dihydrobenzo[b]-quinolizinium chloride·1/2 hydrate] |  | Ki ([2]; hydrate): 497 nM |
| CCOC1(OCC)C2c3cccc(OC)c3C([n+]3ccccc32)C1(C)C (stereo not shown) [Example 16, 7-methoxy-12,12-diethoxy-13,13-dimethyl-6,11-ethano-6,11-dihydrobenzo[b]quinolizinium hexafluorophosphate] | 1870 |  |
| CC1(C)C2c3ccccc3C(c3cccc[n+]32)C12OCCO2 (stereo not shown) [Example 18, 12,..12-(1; 2-ethanediolketal)-13,13-dimethyl-6,11-ethano-6,11-dihydrobenzo[b]quinolizinium perchlorate] | 4000 |  |
| CCOC1(OCC)C2c3cc(Cl)ccc3C([n+]3ccccc32)C1(C)C.[O-][Cl+3]([O-])([O-])[O-] (stereo not shown) [Example 26, 6,11-ethano-12,12-diethoxy-13,13-dimethyl-9-chloro-6,11-dihydrobenzo[b]quinolizinium perchlorate] | 12.4 |  |
| CCOC1(OCC)C2c3c(Br)cccc3C([n+]3ccccc32)C1(C)C (stereo not shown) [Example 30, 6,11-ethano-12,12-diethoxy-13,13-dimethyl-10-bromo-6,11-dihydrobenzo[b]quinolizinium chloride] | 107 |  |
| CCOC1(OCC)C2c3c(ccc4c3OCO4)C([n+]3ccccc32)C1(C)C.[O-][Cl+3]([O-])([O-])[O-] (stereo not shown) [Example 31, 6,11-ethano-12,12-diethoxy-13,13-dimethyl-9,10-methylenedioxy-6,11-dihydrobenzo[b]quinolizinium perchlorate] | 7.42 |  |
| CCOC1(OCC)C2(C)c3c(OC)cccc3C([n+]3ccccc32)C1(C)C.[O-][Cl+3]([O-])([O-])[O-] (stereo not shown) [Example 32, 6,11-ethano-12,12-diethoxy-13,13-dimethyl-10-methoxy-11-methyl-6,11-dihydrobenzo[b]quinolizinium perchlorate] | 63.7 |  |
| CCOC1(OCC)C2c3ccccc3C([n+]3cccc(OC)c32)C1(C)C.[O-][Cl+3]([O-])([O-])[O-] (stereo not shown) [Example 33, 6,11-ethano-12,12-diethoxy-13,13-dimethyl-1-methoxy-6,11-dihydrobenzo-[b]quinolizinium perchlorate] | 25.8 |  |
| CCOC1(OCC)C2c3ccccc3C(C1Br)[n+]1ccccc12.[O-][Cl+3]([O-])([O-])[O-] (stereo not shown) [Example 36, 6,11-ethano-12,12-diethoxy-13-bromo-6,11-dihydrobenzo[b]quinolizinium perchlorate] | 20.4 |  |
| COC1(O[Si](C)(C)C)C2c3ccccc3C([n+]3ccccc32)C1(C)C.[O-][Cl+3]([O-])([O-])[O-] (stereo not shown) [Example 40, 6,11-ethano-12-methoxy-12-trimethylsilyloxy-13,13-dimethyl-6,11-dihydrobenzo[b]quinolizinium perchlorate] | 1600 |  |
| CCN(CC)C1C2c3ccccc3C([n+]3ccccc32)C1(C)C (stereo not shown) [Example 44, 6,11-ethano-12-(diethyl) amino-13,13-dimethyl-6,11-dihydrobenzo[b]quinolizinium diperchlorate] | 501 |  |
| C[C@@H]1C[C@@H](C)OC2(O1)C1c3ccccc3C([n+]3ccccc31)C2(C)C (stereo partly drawn) [Example 45, 6,11-ethano-12,12-(2R,4R-pentanediolketal)-13,13-dimethyl-6,11-dihydrobenzo[b]quinolizinium perchlorate] | 517 |  |
| CCOC1(OCC)C2c3c(C)cccc3C([n+]3ccccc32)C1(C)C.[O-][Cl+3]([O-])([O-])[O-] (stereo not shown) [Example 47, 6,11-ethano-12,12-diethoxy-13,13-dimethyl-10-methyl-6,11-dihydrobenzo[b]quinolizinium perchlorate] | 45.5 |  |
| CCOC1C2c3ccccc3C([n+]3ccccc32)C1(C)C.[O-][Cl+3]([O-])([O-])[O-] (stereo not shown) [Example 48, 6,11-ethano-12-ethoxy-13,13-dimethyl-6,11-dihydrobenzo[b]quinolizinium perchlorate] | 2150 |  |
| CCOC1(OCC)C2c3c(OC)ccc(OC)c3C([n+]3ccccc32)C1(C)C.[O-][Cl+3]([O-])([O-])[O-] (stereo not shown) [Example 52, 6,11-ethano-12,12-diethoxy-13,13-dimethyl-7,10-dimethoxy-6,11-dihydrobenzo[b]quinolizinium perchlorate] |  | Percent inhibition, [3H]TCP (internal screen) [2]: 33% |
| CCOC1(OCC)C2c3cccc(C)c3C([n+]3ccccc32)C1(C)C (stereo not shown) [Example 55, 6,11-ethano-12,12-diethoxy-13,13-dimethyl-7-methyl-6,11-dihydrobenzo[b]quinolizinium chloride] | 455 |  |
| CC(=O)Oc1ccc(C(C)(C)C)c2c1C1[n+]3ccccc3C2C2(O[C@H](C)[C@@H](C)O2)C1(C)C (stereo partly drawn) [Example 56, 6,11-ethano-12,12-(2R,3R-butanediolketal)-13,13-dimethyl-7-acetoxy-10-t-butyl-6,11-dihydrobenzo[b]quinolizinium perchlorate] |  | Percent inhibition, [3H]TCP (internal screen) [2]: 24% |
| CC(=O)Oc1ccc(C(C)(C)C)c2c1C1[n+]3ccccc3C2C2(O[C@H](C)C[C@@H](C)O2)C1(C)C (stereo partly drawn) [Example 57, 6,11-ethano-12,12-(2R,4R-pentanediolketal)-13,13-dimethyl-7-acetoxy-10-t-butyl-6,11-dihydrobenzo[b]quinolizinium perchlorate] |  | Percent inhibition, [3H]TCP (internal screen) [2]: 18% |
| CCOC1(OCC)C2c3c(C(C)(C)C)ccc(OC(C)=O)c3C([n+]3ccccc32)C1(C)C.[O-][Cl+3]([O-])([O-])[O-] (stereo not shown) [Example 58, 6,11-ethano-12,12-diethoxy-13,13-dimethyl-7-acetoxy-10-t-butyl-6,11-dihydrobenzo[b]quinolizinium perchlorate] |  | Percent inhibition, [3H]TCP (internal screen) [2]: 12% |
| CCN(CC)C1C2c3ccccc3C(C1C)[n+]1ccccc12 (stereo not shown) [Example 62, 6,11-ethano-12-(diethyl) amino-13-methyl-6,11-dihydrobenzo[b]quinoliziniumperchlorate] | 12200 |  |
